The record followed here is US9604996B2 (Bayer Pharma Aktiengesellschaft, priority 2013, dated 2017).

The subject of assay [1] is IL-6 release by human fibroblast cell line LL29. Put plainly: NECA-induced IL-6 release by LL29 fibroblasts (ELISA). It counts as cell-based. The note with it: NECA 10 μM, 24 hours incubation, IL-6 ELISA of supernatant, in some cases means, rounded to two significant digits. Here is the method:
B-2. Measurement of NECA-Induced IL-6 Release by LL29 Fibroblasts
Stimulation of fibroblasts with adenosine or the adenosine analog 5′-N-ethylcarboxamidoadenosine (NECA) leads to release of the pro-inflammatory and pro-fibrotic cytokine IL-6 which can be prevented by inhibition of the A2b receptor.
Accordingly, confluent cells of the human fibroblast cell line LL29 were treated with the test substances and stimulated with NECA (10 μM). After an incubation time of 24 hours, the cell supernatant is removed and human IL-6 in the cell supernatant is determined by ELISA (Quantikine® IL6 ELISA, R&D Systems, Minneapolis, USA).
(An ELISA detects its analyte on a solid surface through an enzyme-linked reagent.)

The target of assay [2] is T1, human adenosine A2b receptor (Homo sapiens, UniProt P29275).
T1 construct: expressed in transfected cells; host or cells: CHO-K1 (Chinese Hamster Ovary) with CRE-luciferase reporter
T1 sequence (P29275 1-332): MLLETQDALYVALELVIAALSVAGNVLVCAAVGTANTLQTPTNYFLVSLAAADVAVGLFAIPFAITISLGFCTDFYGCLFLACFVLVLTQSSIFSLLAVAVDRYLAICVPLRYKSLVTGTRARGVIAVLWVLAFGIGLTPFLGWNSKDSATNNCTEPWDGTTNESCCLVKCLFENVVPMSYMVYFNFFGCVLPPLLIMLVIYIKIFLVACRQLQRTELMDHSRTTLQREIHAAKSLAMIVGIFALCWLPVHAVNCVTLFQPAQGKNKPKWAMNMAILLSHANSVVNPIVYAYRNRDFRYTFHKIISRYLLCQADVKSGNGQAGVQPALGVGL
Put plainly: Cellular reporter gene (CRE-luciferase) A2b receptor antagonist assay in recombinant CHO-K1 cells stimulated with NECA. To be noted: recombinant CHO-K1 cell line, co-incubation with EC50 concentration of NECA, 3 hours, in some cases means, rounded to two significant digits. The class given is cell-based. In a few lines:
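CHO-K1 cells expressing human A2b receptor with a CRE-driven firefly luciferase reporter, co-incubated with test compound and NECA at its same-day EC50 concentration. Luminescence read 3 hours after NECA addition.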

Structures are written as SMILES.

As usually defined, the IC50 is the concentration that gives 50% inhibition. For the molecule `CCc1c(C(=O)N2CCC(C)(O)CC2)sc2c1c(=O)n(CC)c(=O)n2CCC(F)(F)F` [Example 88, 3,5-Diethyl-6-[(4-hydroxy-4-methylpiperidin-1-yl)carbonyl]-1-(3,3,3-trifluoropropyl)thieno[2,3-d]pyrimidine-2,4(1H,3H)-dione], the IC50 was 9 nM in assay [1] and 8.7 nM in assay [2].
Regarding `Cc1c(C(=O)N2CCNC(=O)C2)sc2c1c(=O)n(CCc1ccccc1)c(=O)n2CCC(F)(F)F` [Example 26, 5-Methyl-6-[(3-oxopiperazin-1-yl)carbonyl]-3-(2-phenylethyl)-1-(3,3,3-trifluoropropyl)thieno[2,3-d]pyrimidine-2,4(1H,3H)-dione], the results for the IC50 in assay [1] and in assay [2] were 53 nM and 17 nM, respectively.
Consider `CCn1c(=O)c2c(C)c(C(=O)N3CCC(O)(CO)CC3)sc2n(CCC(F)(F)F)c1=O` [Example 74, 3-Ethyl-6-{[4-hydroxy-4-(hydroxymethyl)piperidin-1-yl]carbonyl}-5-methyl-1-(3,3,3-trifluoropropyl)thieno[2,3-d]pyrimidine-2,4(1H,3H)-dione], for which the IC50 in assay [1] turned out to be 250 nM; in assay [2], 110 nM.
In the same order, the values of `Cc1c(C(=O)N2CCC(O)CC2)sc2c1c(=O)n(CCc1ccncc1)c(=O)n2CCC(F)(F)F` [Example 54, 6-[(4-Hydroxypiperidin-1-yl)carbonyl]-5-methyl-3-[2-(pyridin-4-yl)ethyl]-1-(3,3,3-trifluoropropyl)thieno[2,3-d]pyrimidine-2,4(1H,3H)-dione] are 330 nM and 76 nM.
For `CCn1c(=O)c2c(C)c(C(=O)N3CCNC(=O)C3)sc2n(CCC(F)(F)F)c1=O` [Example 35, 3-Ethyl-5-methyl-6-[(3-oxopiperazin-1-yl)carbonyl]-1-(3,3,3-trifluoropropyl)thieno[2,3-d]pyrimidine-2,4(1H,3H)-dione], the IC50 in assay [1] turned out to be 250 nM; in assay [2], 120 nM.
Take `CCn1c(=O)c2c(C)c(C(=O)N3CCC(O)CC3)sc2n(CCC(F)(F)F)c1=O` [Example 18, 3-Ethyl-6-[(4-hydroxypiperidin-1-yl)carbonyl]-5-methyl-1-(3,3,3-trifluoropropyl)thieno[2,3-d]pyrimidine-2,4(1H,3H)-dione]: the IC50 was 170 nM in assay [1] and 57 nM in assay [2].
The like results for `Cc1c(C(=O)N2CCNC(=O)C2)sc2c1c(=O)n(CCc1ccccc1Cl)c(=O)n2CCC=C(F)F` [Example 32, 3-[2-(2-Chlorophenyl)ethyl]-1-(4,4-difluorobut-3-en-1-yl)-5-methyl-6-[(3-oxopiperazin-1-yl)carbonyl]thieno[2,3-d]pyrimidine-2,4(1H,3H)-dione] were, in that order, 230 nM and 110 nM.
In the same order, the values of `Cc1c(C(=O)N2CCNC(=O)C2)sc2c1c(=O)n(CCc1cccnc1)c(=O)n2CCC(F)(F)F` [Example 33, 5-Methyl-6-[(3-oxopiperazin-1-yl)carbonyl]-3-[2-(pyridin-3-yl)ethyl]-1-(3,3,3-trifluoropropyl)thieno[2,3-d]pyrimidine-2,4(1H,3H)-dione] are 140 nM and 67 nM.
